melting point [°C] | SMILES
192.3 to 193.3 | COc1ccc(-c2cc(CO)nn2-c2ccc(S(N)(=O)=O)cc2)cc1I [Example 5, 4-[3-(Hydroxymethyl)-5-(3-iodo-4-methoxyphenyl)-1H-pyrazol-1-yl]benzenesulfonamide]
184.2 to 188.4 | COc1ccc(-c2cc(C(F)F)nn2-c2ccc(S(N)(=O)=O)cc2)cc1I [Example 6, 4-[3-(Difluoromethyl)-5-(3-iodo-4-methoxyphenyl)-1H-pyrazol-1-yl]benzenesulfonamide]
183.1 to 185.6 | COc1ccc(-c2cc(C(F)(F)F)nn2-c2ccc(S(N)(=O)=O)cc2)cc1I [Example 7, 4-[5-(3-Iodo-4-methoxyphenyl)-3-trifluoromethyl-1H-pyrazol-1-yl]benzenesulfonamide]

Reference: patent US20010055565A1, “Method of detecting cyclooxygenase-2” (G.D. Searle & Co., priority 1995, published 2001)
